From PMC2680961, “Homologous desensitization of signalling by the alpha (α) isoform of the human thromboxane A2 receptor: A specific role for nitric oxide signalling” (Biochimica et Biophysica Acta, 2007)
Changes are numbered by the printed parent chain.

Columns and labels:
TPβ^WT = target: T1, TPβ^WT (Homo sapiens, UniProt P21731); assay: [3H]SQ29,548 radioligand binding, Scatchard analysis, HEK.TPβ^WT
T1 construct: expressed in transfected cells
Protocol: (§1) Cells were harvested by centrifugation at 500×g at 4 °C for 5 min and washed three times with ice-cold Ca^2+/Mg^2+-free phosphate-buffered saline (PBS). TP radioligand binding assays were carried out at 30 °C for 30 min in 100 μl reactions in the presence of 0–40 nM [^3H] […] Protein determinations were carried out using the Bradford assay.
(§2) Radioligand binding and Scatchard analysis data were analysed using GraphPad Prisim V4.0 programme (GraphPad Software Inc., San Diego CA, USA). Statistical analyses were carried out using the unpaired Student's t test using the Statworks Analysis Package. p-values ≤ 0.01 indicated statistically significant differences.

TP^S145A,Δ328 = target: T2, TP^S145A,Δ328 (Homo sapiens, UniProt P21731, S145A); assay: [3H]SQ29,548 radioligand binding, Scatchard analysis, HEK.TP^S145A,Δ328
T2 construct: expressed in transfected cells
T2 sequence (P21731 1-328 S145A): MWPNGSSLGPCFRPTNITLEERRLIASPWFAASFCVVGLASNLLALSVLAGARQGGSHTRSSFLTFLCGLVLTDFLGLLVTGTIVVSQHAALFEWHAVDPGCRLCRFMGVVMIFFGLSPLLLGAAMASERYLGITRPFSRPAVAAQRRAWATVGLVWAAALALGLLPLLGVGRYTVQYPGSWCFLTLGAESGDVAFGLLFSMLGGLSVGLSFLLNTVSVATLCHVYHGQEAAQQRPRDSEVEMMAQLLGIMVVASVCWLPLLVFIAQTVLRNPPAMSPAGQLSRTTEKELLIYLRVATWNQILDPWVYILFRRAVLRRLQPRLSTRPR
Protocol: as §1, §2

TPα^S340A = target: T3, TPα^S340A (Homo sapiens, UniProt P21731, S340A); assay: [3H]SQ29,548 radioligand binding, Scatchard analysis, HEK.TPα^S340A
T3 construct: expressed in transfected cells
T3 sequence (P21731 1-343 S340A): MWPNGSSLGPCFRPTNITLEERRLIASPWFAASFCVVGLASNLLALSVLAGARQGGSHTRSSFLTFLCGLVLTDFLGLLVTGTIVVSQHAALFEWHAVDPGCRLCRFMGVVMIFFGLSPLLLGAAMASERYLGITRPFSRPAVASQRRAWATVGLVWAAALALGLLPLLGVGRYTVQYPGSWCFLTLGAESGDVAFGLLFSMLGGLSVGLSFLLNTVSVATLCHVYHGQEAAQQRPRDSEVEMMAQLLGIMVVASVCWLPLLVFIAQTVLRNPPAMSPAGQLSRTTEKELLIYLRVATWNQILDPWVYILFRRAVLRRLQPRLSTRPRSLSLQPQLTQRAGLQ
Protocol: as §1, §2

TPα^S329,331A = target: T4, TPα^S329,331A (Homo sapiens, UniProt P21731, S329A/S331A); assay: [3H]SQ29,548 radioligand binding, Scatchard analysis, HEK.TPα^S329,331A
T4 construct: expressed in transfected cells
T4 sequence (P21731 1-343 S329A/S331A): T3 sequence (P21731 1-343 S340A) with S329A, S331A, A340S
Protocol: as §1, §2

TPα^S239A = target: T5, TPα^S239A (Homo sapiens, UniProt P21731, S239A); assay: [3H]SQ29,548 radioligand binding, Scatchard analysis, HEK.TPα^S239A
T5 construct: expressed in transfected cells
T5 sequence (P21731 1-343 S239A): T3 sequence (P21731 1-343 S340A) with S239A, A340S
Protocol: as §1, §2

TPα^WT = target: T6, TPα^WT (Homo sapiens, UniProt P21731); assay: [3H]SQ29,548 radioligand binding, Scatchard analysis, HEK.TPα^WT
T6 construct: expressed in transfected cells
Protocol: as §1, §2

TP^Δ328 = target: T7, TP^Δ328 (Homo sapiens, UniProt P21731); assay: IP3 generation, HEK.TP^Δ328 cells; assay type: cell-based; conditions: 1 μM U46619 2 min, washout, restimulation at 60 min
T7 construct: expressed in transfected cells
T7 sequence (P21731 1-328): T2 sequence (P21731 1-328 S145A) with A145S
Protocol: Intracellular IP3 levels were measured as previously described [[33,43]]. Briefly, cells were harvested by scraping, washed twice in ice-cold PBS and resuspended at approximately 2 × 10^6 cells/200 μl in HEPES-buffered saline (HBS; […], 4.7 mM KCl, 2.2 mM CaCl2, 1.2 mM KH2PO4, 11 mM glucose, 15 mM HEPES–NaOH, pH 7.4), 10 mM LiCl (Walsh et al., 2000). […] Thereafter, cells were stimulated with 1 μM U46619 at 37 °C for 2 min. To assess agonist-mediated homologous desensitization, cells (2 × 10^6 cells/200 μl) were stimulated with 1 μM U46619 at 37 °C for 2 min (Primary stimulation); thereafter, cells were collected by centrifugation (900×g, 5 min); were washed once in 200 μl HBS, 10 mM LiCl and finally resuspended in 200 μl HBS, 10 mM LiCl and were left to recover for 60 min; thereafter, cells were re-stimulated with 1 μM U46619 at 37 °C for 2 min (secondary stimulation). All ligands and […] were pre-diluted in HBS such that 50 μl added to 200 μl of cell suspension in HBS gave the desired final concentration. To determine basal IP3 levels, an equivalent volume (50 μl) of the vehicle HBS was added instead of ligand. The level of IP3 produced was quantified by radio competition assay essentially as described. […]

T1 sequence (P21731 1-407 isoform P21731-2): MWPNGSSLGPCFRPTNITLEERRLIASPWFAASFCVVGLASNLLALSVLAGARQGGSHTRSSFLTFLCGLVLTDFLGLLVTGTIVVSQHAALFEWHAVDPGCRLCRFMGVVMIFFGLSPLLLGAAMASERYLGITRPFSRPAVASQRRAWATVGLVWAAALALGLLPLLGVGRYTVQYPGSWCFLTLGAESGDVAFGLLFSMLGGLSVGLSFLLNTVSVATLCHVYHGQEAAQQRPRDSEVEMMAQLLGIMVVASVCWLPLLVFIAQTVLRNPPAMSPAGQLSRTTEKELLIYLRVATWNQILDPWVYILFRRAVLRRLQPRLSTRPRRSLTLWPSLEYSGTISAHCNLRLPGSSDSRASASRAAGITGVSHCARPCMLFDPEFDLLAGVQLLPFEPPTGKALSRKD
T6 sequence (P21731 whole entry): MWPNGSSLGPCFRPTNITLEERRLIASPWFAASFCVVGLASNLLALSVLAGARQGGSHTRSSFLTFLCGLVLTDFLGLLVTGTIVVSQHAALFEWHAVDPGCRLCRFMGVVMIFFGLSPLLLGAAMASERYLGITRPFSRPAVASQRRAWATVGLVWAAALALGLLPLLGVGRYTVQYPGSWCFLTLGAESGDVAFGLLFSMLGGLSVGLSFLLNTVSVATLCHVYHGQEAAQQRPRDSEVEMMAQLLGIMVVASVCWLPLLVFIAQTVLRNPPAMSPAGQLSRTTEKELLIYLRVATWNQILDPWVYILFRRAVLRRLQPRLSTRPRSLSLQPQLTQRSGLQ

| Compound | Bmax (pmol/mg protein ± S.E.M.) (TPβ^WT) [pmol/mg protein] | Bmax (pmol/mg protein ± S.E.M.) (TP^S145A,Δ328) [pmol/mg protein] | Bmax (pmol/mg protein ± S.E.M.) (TPα^S340A) [pmol/mg protein] | Bmax (pmol/mg protein ± S.E.M.) (TPα^S329,331A) [pmol/mg protein] | Bmax (pmol/mg protein ± S.E.M.) (TPα^S239A) [pmol/mg protein] | Bmax (pmol/mg protein ± S.E.M.) (TPα^WT) [pmol/mg protein] | IP3 generation following secondary restimulation after U46619 pre-incubation (TP^Δ328) |
| --- | --- | --- | --- | --- | --- | --- | --- |
| O=C(O)CCC/C=C\C[C@@H]1[C@H](CNNC(=O)Nc2ccccc2)[C@H]2CC[C@@H]1O2 [SQ29,548] | 3.64 ± 0.03 | 3.83 ± 0.03 | 5.3 ± 0.04 | 2.9 ± 0.19 | 4.35 ± 0.04 | 4.52 ± 0.05 | – |
| CCCCC[C@H](O)/C=C/[C@@H]1[C@@H](C/C=C\CCCC(=O)O)[C@H]2CO[C@@H]1C2 [U46619] | – | – | – | – | – | – | no significant effect |
